Here are results for 6 compounds from ChEMBL document CHEMBL1151186, “Ether-linked biflavonoids from Quintinia acutifolia” (J Nat Prod, 2004).

In brackets after ≈: the same amount, converted by molar mass. Activity calls are given as the source filed them. No cut-off for these calls is given here.

Assay [1] concerns P388. Briefly: Cytotoxicity against mouse P388 cells. It is filed as functional, cell-based.
The test system of assay [2] is Bacillus subtilis. The experiment in a line: Antimicrobial activity against Bacillus subtilis ATCC 19659 at 150 ug/disk. It is filed as functional, organism-based.
Assay [3] relates to Bacillus subtilis. Briefly: Antimicrobial activity against Bacillus subtilis ATCC 19659 at 30 ug/disk. The conditions noted are these: read-out: IZ. It is filed as functional.
Assay [4] deals with P388. Briefly: Cytotoxicity against mouse P388 cells at 0.06 ug/mL. The assay is classed as functional.

Compound `COc1cc(O)c2c(c1)OC(c1ccc(Oc3cc(C4CC(=O)c5c(O)cc(OC)cc5O4)ccc3O)cc1)CC2=O` (centres undefined) displayed an IC50 in the assay with P388 [1] of 8.7 µg/mL (≈ 15.2 µM). Further, the result in the assay on Bacillus subtilis [2] was inactive. The corresponding values for `O=C1CC(c2ccc(Oc3cc(C4CC(=O)c5c(O)cc(O)cc5O4)ccc3O)cc2)Oc2cc(O)cc(O)c21` (centres undefined) are 8.2 µg/mL (≈ 15.1 µM) and “inactive”. Take `O=C(N[C@H](CO)[C@H](O)c1ccc([N+](=O)[O-])cc1)C(Cl)Cl` [CHLORAMPHENICOL]: in the assay with Bacillus subtilis [3], the zone of inhibition at 30 µg/disc amounted to 12 mm.

With `COc1cc(O)c2c(c1)OC(c1ccc(O)c(Oc3ccc(C4CC(=O)c5c(O)cc(O)cc5O4)cc3)c1)CC2=O` (centres undefined), the outcome with Bacillus subtilis [2] was inactive.

The compound `CO[C@@]12[C@H](COC(N)=O)C3=C(C(=O)C(C)=C(N)C3=O)N1C[C@@H]1N[C@@H]12` [MITOMYCIN] had an Activity with P388 [4] of 43%. In turn, `O=C1CC(c2ccc(Oc3cc(-c4cc(=O)c5c(O)cc(O)cc5o4)ccc3O)cc2)Oc2cc(O)cc(O)c21` (centres undefined) displayed an IC50 in the assay on P388 [1] of 3.1 µg/mL (≈ 5.74 µM). For the same compound, the result with Bacillus subtilis [2] was inactive.
